# Measurements taken from paper PMC5862408, “CCR2 antagonism leads to marked reduction in proteinuria and glomerular injury in murine models of focal segmental glomerulosclerosis (FSGS)” (PLoS ONE, 2018).
# Values joined by “and” are separate entries in the source; they are usually repeats but may differ in a detail not shown here. Equal values may be shown once.
# Legend:
# [1] = system: 5/6 nephrectomized 129X1/SvJ mice; assay: 5/6 nephrectomy model (comparison with ET1/AT1 dual inhibitor); format: in vivo, mouse; conditions: for UAER / UACR: mean ± SEM; for UACR (mg/mg) at Week 1 / UACR (mg/mg) at Week 4 / UAER (mg/day) at Week 1 / UAER (mg/day) at Week 2 / UAER (mg/day) at Week 4: individual mice; for UACR: CCX872 90 mg/kg s.c. once daily, RAAS blocker 5 mg/kg orally once daily, Sparsentan 90 mg/kg orally twice daily
# Experimental: (§1) Chemotaxis, calcium mobilization, and radio-ligand binding assays were conducted as previously described. Inhibition values (IC50) were calculated using non-linear regression with a one-site competition model (GraphPad Prism, GraphPad Software, La Jolla, CA). Urinary albumin was measured by ELISA (Bethyl Labs, Montgomery, TX). Urinary and serum creatinine was measured by LC-MS/MS at ChemoCentryx. The urinary albumin excretion rate (UAER) was calculated as micrograms per 24 h. Blood urea nitrogen (BUN) was measured by Antech Diagnostics (Morrisville, NC). Serum cystatin C was measured by ELISA (R&D Systems, Minneapolis, MN). The albumin to creatinine ratio (ACR) was calculated as micrograms of albumin per milligram of creatinine.
# (§2) 5/6 nephrectomy mice on the 129X1/SvJ background were obtained from Jackson Laboratories, and were received at ChemoCentryx after the surgery was performed at JAX. Under isoflurane anesthesia, two-thirds of the left kidney mass was removed at 5–6 weeks of age. Then, after 7 to 10 days, a right unilateral nephrectomy was performed. The mice were fed a standard chow and had free access to water. Three weeks after the 5/6 nephrectomy, the mice were grouped to ensure a similar starting UAER in each treatment group. CCX872 or its vehicle were dosed subcutaneously once daily formulated in 1% HPMC. The RAAS blocker Candesartan (AK Scientific, Union City, CA) and its vehicle were dosed orally once daily at 5 mg/kg formulated in water. Sparsentan, the dual-acting receptor antagonist for endothelin (A type) and angiotensin II receptors (Type 1) was synthesized at ChemoCentryx and was dosed orally twice daily at 90 mg/kg formulated in 1% HPMC. The mice were housed individually in metabolic cages for quantitative collection of urinary albumin and creatinine.
# Fig 4 Relative efficacy of CCR2, RAAS, and endothelin receptor blockade in the 5/6 nephrectomy model as assessed by UACR (mg/mg). Mice underwent a 5/6 nephrectomy as described in Methods. Three weeks post-surgery the mice were randomized to the indicated groups for the study period of 4 weeks. Urine was collected for measurement of UACR at the indicated time points, as described in Methods. Error bars represent standard error of the mean. N = 10/group at week 1, and N = 6 at week 4. p values were calculated between each drug-treated group and vehicle treated animals (asterisk), or between the CCX872/RAAS blocker combination and RAAS blocker alone (octothorpe) using student’s t-test (GraphPad Prism).
# [2] = system: Adriamycin challenged female Balb/c mice; assay: Adriamycin induced nephropathy model; format: in vivo, mouse; conditions: individual mice
# [3] = system: Adriamycin challenged female Balb/c mice; assay: Adriamycin induced nephropathy model; format: in vivo, mouse; conditions: for UAER: mean ± SEM
# Experimental: Chemotaxis, calcium mobilization, and radio-ligand binding assays were conducted as previously described. Inhibition values (IC50) were calculated using non-linear regression with a one-site competition model (GraphPad Prism, GraphPad Software, La Jolla, CA). Urinary albumin was measured by ELISA (Bethyl Labs, Montgomery, TX). Urinary and serum creatinine was measured by LC-MS/MS at ChemoCentryx. The urinary albumin excretion rate (UAER) was calculated as micrograms per 24 h. Blood urea nitrogen (BUN) was measured by Antech Diagnostics (Morrisville, NC). Serum cystatin C was measured by ELISA (R&D Systems, Minneapolis, MN). The albumin to creatinine ratio (ACR) was calculated as micrograms of albumin per milligram of creatinine. These experiments were performed using female Balb/c mice (Jackson Laboratories, Bar Harbor, Maine). The mice were kept on standard chow and had free access to water. At age of 10 weeks, 7.5 mg/kg Adriamycin (Selleck Chemicals, Houston, TX) or saline (control) was injected via tail vein in isoflurane-anesthetized animals (day 0). CCX872 and/or vehicle were dosed subcutaneously once daily at 90 mg/kg formulated in 1% HPMC. The RAAS blocker Candesartan (AK Scientific, Union City, CA) and its vehicle were dosed orally once daily at 5 mg/kg, formulated in water. All dosing started 2 hours prior Adriamycin challenge. The mice were housed individually in metabolic cages for quantitative collection of urinary albumin and creatinine.  Fig 2 CCX872 improves renal function as assessed by UACR, serum creatinine and BUN in adriamycin challenged mice. Mice were challenged with Adriamycin as described in Methods. Test compound treatment was begun one hour prior to the Adriamycin challenge. Urine was collected for measurement of UAER (S3 Table) and creatinine at the indicated time points, and UACR was calculated as described in Methods. Serum creatinine and BUN were measured at time of terminal bleed after two weeks of treatment. Error bars represent standard error of the mean. N = 10/group at week 1, and N = 8 at week 2. p values were calculated on each treated group to vehicle treated animals using student’s t-test (GraphPad Prism).
# [4] = system: 5/6 nephrectomized 129X1/SvJ mice; assay: 5/6 nephrectomy model (CCX872, RAAS blocker, combination); format: in vivo, mouse; conditions: for BUN / Serum Creatinine / Serum Cystatin C: terminal bleed; for UACR: CCX872 90 mg/kg s.c., RAAS blocker 5 mg/kg orally, once daily
# Experimental: as §1
# as §2, with “creatinine. […]” for “creatinine.”
# Fig 3 CCX872 improves renal function as assessed by UACR, serum creatinine, BUN and cystatin C in 5/6 nephrectomized mice. Mice underwent a 5/6 nephrectomy as described in Methods. Three weeks post-surgery the mice were randomized to the groups indicated above for the study period of 4 weeks. Urine was collected for measurement of albumin and creatinine at the indicated time points, and UACR was calculated as described in Methods. Serum creatinine, BUN and Cystatin C were measured at time of terminal bleed after four weeks of treatment. Error bars represent standard error of the mean. N = 10/group, and N = 6 at week 3. p values were calculated between each drug-treated group and vehicle treated animals (asterisk), or between CCX872/RAAS blocker combination and RAAS blocker alone (octothorpe) using student’s t-test (GraphPad Prism).
# [5] = system: diabetic nephropathy patients; conditions: 52 weeks of treatment; cited from earlier work
# patients with FSGS = system: patients with FSGS; parameters: method as in announced by Retrophin; conditions: 8-week time point, 109 patients with FSGS, compared to irbesartan; ref announced by Retrophin; cited from earlier work
# [6] = terminal bleed, individual mice
# [7] = four-week time point, mean ± SEM
# [8] = individual mice, listed as RAASi
smiles,measurement,setting,value
"CCOc1nc2cccc(C(=O)O)c2n1Cc1ccc(-c2ccccc2-c2nnn[nH]2)cc1 [RAAS Blocker, Candesartan]",UAER,[1]; Week 1,"9.38 ± 7.70, p=0.27 mg/day"
same,UAER,[1]; Week 2,"7.72 ± 6.37, p=0.06 mg/day"
same,UAER,[1]; Week 4,"1.74 ± 2.49, p=0.02 mg/day"
same,UACR (mg/mg) at Week 1,[1],0.2531 mg/mg and 1.465 mg/mg and 2.285 mg/mg and 73.9074 mg/mg and 1.319 mg/mg and 7.089 mg/mg and 0.4551 mg/mg and 1.07 mg/mg
same,UACR (mg/mg) at Week 4,[1],0.751 mg/mg and 2.804 mg/mg and 0.2303 mg/mg and 0.9337 mg/mg and 0.4088 mg/mg and 0.9456 mg/mg
same,UAER (mg/day) at Week 1,[1],0.1519 mg/day and 0.9615 mg/day and 2.137 mg/day and 63.0549 mg/day and 1.2792 mg/day and 6.0897 mg/day and 0.4778 mg/day and 0.9119 mg/day
same,UAER (mg/day) at Week 2,[1],0.4333 mg/day and 5.515 mg/day and 1.464 mg/day and 44.8051 mg/day and 0.7469 mg/day and 7.145 mg/day and 0.2974 mg/day and 1.3574 mg/day
same,UAER (mg/day) at Week 4,[1],1.13 mg/day and 3.156 mg/day and 0.298 mg/day and 1.221 mg/day and 0.2117 mg/day and 1.028 mg/day
same,UACR,[1]; week one,10.98 ± 9.02 mg/mg
same,UACR (mg/mg) at Week 1,[2],20.0842 mg/mg and 22.2965 mg/mg and 25.3406 mg/mg and 40.1693 mg/mg and 41.555 mg/mg and 302.958 mg/mg and 55.6444 mg/mg and 187.49 mg/mg and 117.091 mg/mg and 7.322 mg/mg
same,UACR (mg/mg) at Week 2,[2],56.294 mg/mg and 76.9257 mg/mg and 96.611 mg/mg and 232.005 mg/mg and 248.91 mg/mg and 18.6549 mg/mg and 102.568 mg/mg and 35.7503 mg/mg
same,UAER (mg/day) at Week 1,[2],10.1862 mg/day and 10.9954 mg/day and 11.0332 mg/day and 14.9575 mg/day and 18.3446 mg/day and 113.025 mg/day and 29.5364 mg/day and 126.741 mg/day and 54.0627 mg/day and 5.677 mg/day
same,UAER (mg/day) at Week 2,[2],28.1393 mg/day and 36.5424 mg/day and 35.6435 mg/day and 176.989 mg/day and 173.035 mg/day and 14.0491 mg/day and 53.4766 mg/day and 17.1116 mg/day
same,UAER,[3]; Week 1,"39.46 ± 14.14, p=0.16 mg/day"
same,UAER,[3]; Week 2,"66.87 ± 23.99, p=0.52 mg/day"
same,BUN,[3]; [6],100 mg/dL and 80 mg/dL and 65 mg/dL and 70 mg/dL and 85 mg/dL and 125 mg/dL and 75 mg/dL
same,Serum Creatinine,[3]; [6],0.927 µg/mL and 1.08 µg/mL and 1.05 µg/mL and 1.06 µg/mL and 0.956 µg/mL and 1.21 µg/mL and 0.91 µg/mL and 1.09 µg/mL and 1.14 µg/mL and 1.35 µg/mL
same,UAER,"[4]; Week 1, mean ± SEM","8.27± 1.89, p=0.03 mg/day"
same,UAER,"[4]; Week 2, mean ± SEM","3.62 ± 1.63, p=0.03 mg/day"
same,UAER,"[4]; Week 3, mean ± SEM","3.32 ± 0.76, p<0.0001 mg/day"
same,BUN,[4]; [7],247.0 ± 16.42 mg/dL
same,Serum Creatinine,[4]; [7],2.78 ± 0.27 µg/mL
same,UAER (mg/day) at Week 1,[4]; individual mice,2.15 mg/day and 4.699 mg/day and 15.5467 mg/day and 16.4212 mg/day and 15.0186 mg/day and 0.6806 mg/day and 9.638 mg/day and 3.148 mg/day and 4.462 mg/day and 10.9401 mg/day
same,UAER (mg/day) at Week 2,[4]; individual mice,0.7796 mg/day and 9.402 mg/day and 12.4793 mg/day and 1.127 mg/day and 0.5679 mg/day and 1.491 mg/day and 1.407 mg/day and 1.719 mg/day
same,UAER (mg/day) at Week 3,[4]; individual mice,5.801 mg/day and 4.3025 mg/day and 1.247 mg/day and 2.019 mg/day and 1.844 mg/day and 4.699 mg/day
same,UACR (mg/mg) at Week 1,[4]; [8],5.748 mg/mg and 5.722 mg/mg and 28.9118 mg/mg and 21.9395 mg/mg and 21.4656 mg/mg and 1.415 mg/mg and 15.8208 mg/mg and 5.683 mg/mg and 7.266 mg/mg and 18.781 mg/mg
same,UACR (mg/mg) at Week 3,[4]; [8],7.871 mg/mg and 8.029 mg/mg and 3.677 mg/mg and 3.863 mg/mg and 2.8993 mg/mg and 7.734 mg/mg
same,Serum Cystatin C,[4]; individual mice,0.9323 µg/mL and 2.095 µg/mL and 2.201 µg/mL and 1.815 µg/mL and 2.053 µg/mL and 1.1273 µg/mL and 1.429 µg/mL and 1.517 µg/mL and 1.562 µg/mL and 2.118 µg/mL
same,BUN,[4]; [8],245 mg/dL and 215 mg/dL and 265 mg/dL and 205 mg/dL and 330 mg/dL and 255 mg/dL and 170 mg/dL and 210 mg/dL
same,Serum Creatinine,[4]; [8],2.46 µg/mL and 1.88 µg/mL and 2.93 µg/mL and 2.22 µg/mL and 2.77 µg/mL and 2.85 µg/mL and 2.01 µg/mL and 5.03 µg/mL and 2.87 µg/mL
same,Serum Cystatin C,[4]; mean ± SEM,1.68 ± 0.14 µg/mL
same,UACR,"[4]; week 1, mean ± SEM",13.28 ± 2.928 mg/mg
same,UACR,"[4]; week 3, mean ± SEM",5.679 ± 0.99 mg/mg
Cc1cnc(C(=O)c2ncnc3[nH]ccc23)c(NS(=O)(=O)c2ccc(Cl)c(C(F)(F)F)c2)c1 [CCX140-B],proteinuria,[5],decreased and sustained reduction of proteinuria
"CCCCC1=NC2(CCCC2)C(=O)N1Cc1ccc(-c2ccccc2S(=O)(=O)Nc2noc(C)c2C)c(COCC)c1 [ET1/AT2 Dual Blocker, Sparsentan]",UAER,[1]; Week 1,"2.64 ± 0.75, p=0.036 mg/day"
same,UAER,[1]; Week 2,"1.54 ± 2.15, p=0.01 mg/day"
same,UAER,[1]; Week 4,"1.15 ± 1.47, p=0.001 mg/day"
same,UACR (mg/mg) at Week 1,[1]; listed as ET1/AT1 Dual,1.081 mg/mg and 2.162 mg/mg and 2.864 mg/mg and 2.81 mg/mg and 3.047 mg/mg and 2.101 mg/mg and 2.214 mg/mg and 0.6904 mg/mg and 5.004 mg/mg
same,UACR (mg/mg) at Week 4,[1]; listed as ET1/AT1 Dual,2.388 mg/mg and 0.4973 mg/mg and 0.675 mg/mg and 0.2626 mg/mg and 0.5926 mg/mg and 2.095 mg/mg and 0.7726 mg/mg
same,UAER (mg/day) at Week 1,[1]; listed as ET1/AT1 Dual,0.8511 mg/day and 1.523 mg/day and 1.648 mg/day and 2.037 mg/day and 2.769 mg/day and 1.544 mg/day and 1.531 mg/day and 0.6428 mg/day and 5.6 mg/day
same,UAER (mg/day) at Week 2,[1]; listed as ET1/AT1 Dual,1.304 mg/day and 1.518 mg/day and 4.44 mg/day and 2.237 mg/day and 1.797 mg/day and 4.071 mg/day and 1.476 mg/day and 0.485 mg/day and 1.88 mg/day
same,UAER (mg/day) at Week 4,[1]; listed as ET1/AT1 Dual,1.009 mg/day and 1.391 mg/day and 0.6452 mg/day and 0.283 mg/day and 0.9648 mg/day and 0.8066 mg/day and 1.065 mg/day
same,UACR reduction vs vehicle,[1]; week one,93.5%
same,UACR,[1]; week one,2.44 ± 0.42 mg/mg
same,proteinuria (primary endpoint),patients with FSGS,statistically significant reduction in proteinuria as compared to irbesartan
